Assay results published in publication PMC9525273 (Nature Communications, 2022).
“And” between values parts separate entries of the source, which are not always exact repeats. Equal entries are not always repeated.

Target: T1, PfATP4^WT (membranes from Dd2-Polδ parasites) (Plasmodium falciparum, UniProt A0A143ZZK9)
T1 sequence (A0A143ZZK9 1-1264): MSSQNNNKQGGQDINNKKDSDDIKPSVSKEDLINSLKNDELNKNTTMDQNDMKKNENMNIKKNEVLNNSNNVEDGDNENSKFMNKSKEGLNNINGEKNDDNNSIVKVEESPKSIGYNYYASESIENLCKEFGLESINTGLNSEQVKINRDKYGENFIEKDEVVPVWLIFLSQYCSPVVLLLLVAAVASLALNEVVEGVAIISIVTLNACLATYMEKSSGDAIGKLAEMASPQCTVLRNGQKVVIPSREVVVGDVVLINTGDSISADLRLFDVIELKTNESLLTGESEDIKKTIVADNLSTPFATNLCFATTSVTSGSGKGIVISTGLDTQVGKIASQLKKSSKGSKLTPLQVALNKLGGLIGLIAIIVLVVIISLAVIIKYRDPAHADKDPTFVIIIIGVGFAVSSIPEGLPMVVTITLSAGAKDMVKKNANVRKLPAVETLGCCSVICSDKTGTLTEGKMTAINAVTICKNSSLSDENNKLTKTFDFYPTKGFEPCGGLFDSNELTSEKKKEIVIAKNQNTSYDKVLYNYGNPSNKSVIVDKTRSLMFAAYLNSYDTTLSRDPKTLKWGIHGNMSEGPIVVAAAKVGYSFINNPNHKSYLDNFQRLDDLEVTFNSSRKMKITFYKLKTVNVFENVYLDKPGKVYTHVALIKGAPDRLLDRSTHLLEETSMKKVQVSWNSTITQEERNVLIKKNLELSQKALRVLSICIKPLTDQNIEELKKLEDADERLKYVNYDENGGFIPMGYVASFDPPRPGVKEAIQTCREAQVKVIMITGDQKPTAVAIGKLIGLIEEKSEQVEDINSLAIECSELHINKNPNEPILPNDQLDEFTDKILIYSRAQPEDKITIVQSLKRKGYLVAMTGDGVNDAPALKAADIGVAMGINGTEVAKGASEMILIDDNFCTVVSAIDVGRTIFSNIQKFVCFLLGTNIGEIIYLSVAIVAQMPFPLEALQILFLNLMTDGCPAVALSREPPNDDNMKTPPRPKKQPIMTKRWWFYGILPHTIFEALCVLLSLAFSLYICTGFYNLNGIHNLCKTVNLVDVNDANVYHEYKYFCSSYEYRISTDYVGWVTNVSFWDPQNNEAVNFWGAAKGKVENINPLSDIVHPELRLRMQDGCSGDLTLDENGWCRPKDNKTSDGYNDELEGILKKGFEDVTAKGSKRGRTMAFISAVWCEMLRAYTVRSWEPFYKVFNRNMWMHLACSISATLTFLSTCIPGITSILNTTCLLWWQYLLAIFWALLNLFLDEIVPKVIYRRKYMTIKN
Assay: Membrane ATPase assay, ATP4-associated (Na+-dependent) ATPase activity
Type: biochemical
Conditions: for IC50 for inhibition of ATP4-associated ATPase activity, MEAN: Dd2-Polδ membranes, source data of Table 1 (nM there); for IC50 for ATP4-associated ATPase activity: membranes from Dd2-Polδ, mean ± SEM
Protocol: Membranes from isolated P. falciparum or extracellular T. gondii parasites were prepared by lysing parasites in ice-cold deionized water containing a 1:500 dilution of Protease Inhibitor Cocktail Set III (Merck Millipore), then washing the membrane preparation three times in ice-cold deionized water (with protease inhibitors present for the first two washes)[15]. Protein concentrations in the membrane preparations were measured using a Bradford assay. The PiColorLock Gold Phosphate Detection System (Innova Biosciences) was used to measure the production of Pi from hydrolysis of ATP[15]. Membrane preparations were diluted in either a high Na^+ solution (yielding final conditions in the reactions of 150 mM NaCl, 20 mM KCl, 2 mM MgCl2, 50 mM Tris, pH 7.2) or a Na^+-free solution (yielding final conditions of 150 mM choline chloride, 20 mM KCl, 2 mM MgCl2, 50 mM Tris, pH 7.2) to achieve a total protein concentration of 50 μg/mL. […] The reactions were performed at 37 °C, and were initiated by the addition of 1 mM ATP (Na2ATP۰3H2O; MP Biomedicals) and terminated 10 min later by adding 100 μL of reaction mixture (in duplicate) to 25 μL “Gold mix” in a 96-well plate. “Stabiliser” was added 3 min later, and the plates incubated at room temperature in the dark for 60 min before measuring absorbance at 635 nm. Background values (averaged from wells containing all components, but to which ATP was not added until after the membrane was exposed to Gold mix) were subtracted from the data. For each treatment, the ATPase activity associated with the (Na^+-dependent) PfATP4 and TgATP4 proteins was calculated by subtracting data obtained in the low Na^+ condition (containing only the 2 mM Na^+ introduced on addition of 1 mM Na2ATP) from that obtained in the high Na^+ condition.

SMILES: N#Cc1cc(NC(=O)[C@H]2c3ccccc3C(=O)N(CC(F)(F)F)[C@@H]2c2cccnc2)ccc1F [(+)-SJ733]
- IC50 for inhibition of ATP4-associated ATPase activity, MEAN (MEAN): 5.23
- IC50 for ATP4-associated ATPase activity: 5.2 ± 2.3 (3) nM

SMILES: N#Cc1cc(NC(=O)[C@H]2c3ccccc3C(=O)N(CC(F)(F)F)[C@@H]2c2cccnc2)ccc1F [(+)SJ733]
- PfATP4-associated ATPase activity (% of control) (Dd2-Polδ, [(+)SJ733] 0.122 nM, MEAN): 74.2 % of control
- PfATP4-associated ATPase activity (% of control) (Dd2-Polδ, [(+)SJ733] 0.122 nM, single experiments, 0.000122 µM): 57.4 % of control and 86.4 % of control and 78.7 % of control
- PfATP4-associated ATPase activity (% of control) (Dd2-Polδ, [(+)SJ733] 0.244 nM, MEAN): 71.3 % of control
- PfATP4-associated ATPase activity (% of control) (Dd2-Polδ, [(+)SJ733] 0.244 nM, single experiments, 0.000244 µM): 51.9 % of control and 74.9 % of control and 87.1 % of control
- PfATP4-associated ATPase activity (% of control) (Dd2-Polδ, [(+)SJ733] 0.5 nM, MEAN): 85.1 % of control
- PfATP4-associated ATPase activity (% of control) (Dd2-Polδ, [(+)SJ733] 1.0 nM, MEAN): 59.1 % of control
- PfATP4-associated ATPase activity (% of control) (Dd2-Polδ, [(+)SJ733] 2.0 nM, MEAN): 64.2 % of control
- PfATP4-associated ATPase activity (% of control) (Dd2-Polδ, [(+)SJ733] 3.9 nM, MEAN): 46.7 % of control
- PfATP4-associated ATPase activity (% of control) (Dd2-Polδ, [(+)SJ733] 7.8 nM, MEAN): 32.8 % of control
- PfATP4-associated ATPase activity (% of control) (Dd2-Polδ, [(+)SJ733] 15.6 nM, MEAN): 21.9 % of control
- PfATP4-associated ATPase activity (% of control) (Dd2-Polδ, [(+)SJ733] 31.3 nM, MEAN): 30.9 % of control
- PfATP4-associated ATPase activity (% of control) (Dd2-Polδ, [(+)SJ733] 62.5 nM, MEAN): 7.7 % of control
- PfATP4-associated ATPase activity (% of control) (Dd2-Polδ, [(+)SJ733] 250 nM, MEAN): 11.2 % of control
- PfATP4-associated ATPase activity (% of control) (Dd2-Polδ, [(+)SJ733] 500 nM, MEAN): -2.6 % of control
- PfATP4-associated ATPase activity (% of control) (Dd2-Polδ, [(+)SJ733] 1000 nM, MEAN): -8.2 % of control
- PfATP4-associated ATPase activity (% of control) (Dd2-Polδ, [(+)SJ733] 2000 nM, MEAN): 7.9 % of control
- PfATP4-associated ATPase activity (% of control) (Dd2-Polδ, [(+)SJ733] 4000 nM, MEAN): -17.1 % of control
- PfATP4-associated ATPase activity (% of control) (Dd2-Polδ, [(+)SJ733] 8000 nM, MEAN): -14.6 % of control

SMILES: C[C@H]1Cc2c([nH]c3cc(Cl)c(F)cc23)[C@@]2(N1)C(=O)Nc1ccc(Cl)cc12 [Cipargamin]
- IC50 for inhibition of ATP4-associated ATPase activity, MEAN (MEAN): 2.51
- remaining activity at 3.76 pM (Dd2-Polδ, [Cipargamin] 0.00376 nM, MEAN, read-out: PfATP4-associated ATPase activity (% of control)): 75.4%
- remaining activity at 11 pM (Dd2-Polδ, [Cipargamin] 0.011 nM, MEAN, read-out: PfATP4-associated ATPase activity (% of control)): 75%
- PfATP4-associated ATPase activity (% of control) (Dd2-Polδ, [Cipargamin] 0.011 nM, single experiments, 11 pM): 92.1 % of control and 50.6 % of control and 82.7 % of control and 74.5 % of control
- remaining activity at 34 pM (Dd2-Polδ, [Cipargamin] 0.034 nM, MEAN, read-out: PfATP4-associated ATPase activity (% of control)): 76%
- remaining activity at 0.000102 µM (Dd2-Polδ, [Cipargamin] 0.102 nM, MEAN, read-out: PfATP4-associated ATPase activity (% of control)): 66.1%
- remaining activity at 0.000305 µM (Dd2-Polδ, [Cipargamin] 0.305 nM, MEAN, read-out: PfATP4-associated ATPase activity (% of control)): 60.1%
- PfATP4-associated ATPase activity (% of control) (Dd2-Polδ, [Cipargamin] 0.305 nM, single experiments, 0.000305 µM): 59.8 % of control and 42.8 % of control and 70.9 % of control and 66.9 % of control
- remaining activity at 0.000914 µM (Dd2-Polδ, [Cipargamin] 0.914 nM, MEAN, read-out: PfATP4-associated ATPase activity (% of control)): 32.6%
- remaining activity at 0.002743 µM (Dd2-Polδ, [Cipargamin] 2.743 nM, MEAN, read-out: PfATP4-associated ATPase activity (% of control)): 25.1%
- remaining activity at 0.00823 µM (Dd2-Polδ, [Cipargamin] 8.230 nM, MEAN, read-out: PfATP4-associated ATPase activity (% of control)): -9.5%
- remaining activity at 0.024691 µM (Dd2-Polδ, [Cipargamin] 24.691 nM, MEAN, read-out: PfATP4-associated ATPase activity (% of control)): -14.7%
- remaining activity at 0.074074 µM (Dd2-Polδ, [Cipargamin] 74.074 nM, MEAN, read-out: PfATP4-associated ATPase activity (% of control)): -19.7%
- remaining activity at 0.222222 µM (Dd2-Polδ, [Cipargamin] 222.222 nM, MEAN, read-out: PfATP4-associated ATPase activity (% of control)): -16.9%
- remaining activity at 0.666667 µM (Dd2-Polδ, [Cipargamin] 666.667 nM, MEAN, read-out: PfATP4-associated ATPase activity (% of control)): -29.5%
- remaining activity at 1.25 pM (Dd2-Polδ, [Cipargamin] […], MEAN, read-out: PfATP4-associated ATPase activity (% of control)): 85.7%
- IC50 for ATP4-associated ATPase activity: 2.5 ± 0.8 (4) nM
